Read-outs that look alike come from different tables or passages of the source.
Key:
[1] = Fluorescence assay for glutathione: Kd from absorption/fluorescence change on glutathione addition; assay type: binding
Experimental: (§1) Glutathione was reacted with the fluorescent probe 2Me SiR600 (compound 1) synthesized in Example 1, and fluorescence assay was conducted. A Shimadzu UV-2450 (Shimadzu Corporation) and a Hitachi F-7000 (Hitachi, Ltd.) were used in ultraviolet-visible spectroscopy and fluorescence spectroscopy. A fluorescent probe was diluted to a final concentration of 1 μM in 0.2 M sodium phosphate buffer (pH 7.4), containing 0.1-1% DMSO. The absorption spectrum and fluorescence spectrum were measured when various concentration of glutathione was added in the range of 1 μM-100 mM. The excitation wavelength was 590 nm.

[2] = Ultraviolet-visible and fluorescence spectroscopy of the probes; assay type: physicochemical; conditions: for Quantum yield: 0.2 M sodium phosphate buffer pH 7.4
Experimental: as §1

[3] = tested on: intracellular glutathione in cultured cancer cells; test: Cell imaging in cultured cancer cells by confocal microscope; assay type: cell-based; conditions: for change in fluorescence intensity ratio in cells: NEM addition, FIGS. 8 and 9
Experimental: Next, cell imaging in cultured cancer cells was conducted using compound 1 (2Me SiR600) as a fluorescent probe. Measurement was conducted using a confocal microscope.
Fluorescence imaging in cultured cancer cells was conducted in the same way as in Example 4 using compound 8 (2Me SiR600-TMR) as the fluorescent probe (FIG. 8).

[4] = Table 1, dissociation constant for glutathione, calculated from changes in the fluorescence spectrum, pH 7.4, read-out: Kd
[5] = Table 1, 1 μM probe, 0.2 M sodium phosphate buffer pH 7.4, 0.1-1% DMSO
[6] = Table 2, dissociation constant for glutathione, same conditions as Example 2, read-out: Kd
[7] = Table 2, same conditions as Example 2

Structure (SMILES)	Kd [1, 4] [µM]	Absorption peak [nm] [2, 5] [nm]	Fluorescence peak [nm] [2, 5] [nm]	Quantum yield ([2]; Table 1)	Kd [1, 6] [µM]	Absorption peak [nm] [2, 7] [nm]	Fluorescence peak [nm] [2, 7] [nm]	Fluorescence quantum yield [2, 7]	also measured
Cc1ccccc1C1=C2C=CC(=N)C=C2[Si](C)(C)c2cc(N)ccc21 [Compound 1, 2Me SiR600]	1100	593	613	0.38	–	–	–	–	Kd ([1]; from values at absorption peak wavelength (593 nm) against glutathione concentration, read-out: dissociation constant Kd): 1000 µM; Kd ([1]; from values at fluorescence peak wavelength (614 nm) against glutathione concentration, excitation 590 nm, read-out: dissociation constant Kd): 1100 µM; change in fluorescence intensity in cells ([3]; glutathione depletion due to N-ethylmaleimide (NEM) addition, FIG. 4): an increase in fluorescence intensity was found
CN(C)c1ccc2c(c1)[Si](C)(C)C1=CC(=[N+](C)C)C=CC1=C2c1ccccc1 [Compound 2, Ph SiR650]	900	645	668	0.14	–	–	–	–	–
COc1ccccc1C1=C2C=CC(=[N+](C)C)C=C2[Si](C)(C)c2cc(N(C)C)ccc21 [Compound 3, 2OMe SiR650]	41000	649	672	0.37	–	–	–	–	–
CN(C)c1ccc2c(c1)[Si](C)(C)C1=CC(=[N+](C)C)C=CC1=C2c1ccccc1O [Compound 4, 2OH SiR650]	43000	648	672	0.31	–	–	–	–	–
CN(C)c1ccc2c(c1)[Si](C)(C)C1=CC(=[N+](C)C)C=CC1=C2c1ccccc1C#N [Compound 5, 2CN SiR650]	1200	658	683	0.25	–	–	–	–	–
COc1ccccc1C1=c2cc3c(cc2[Si](C)(C)c2cc4c(cc21)OCCN4C)=[N+](C)CCO3 [Compound 6, 2OMe OxaSiR diMe]	700	699	740	0.08	–	–	–	–	–
CN1CCOc2cc3c(cc21)[Si](C)(C)c1cc2c(cc1=C3c1ccccc1O)OCC[N+]=2C [Compound 7, 2OH OxaSiR diMe]	900	699	739	0.07	–	–	–	–	–
Cc1cc(C(=O)NC2CCC(NC(=O)c3ccc(-c4c5ccc(=[N+](C)C)cc-5oc5cc(N(C)C)ccc45)c(C(=O)[O-])c3)CC2)ccc1C1=C2C=CC(=N)C=C2[Si](C)(C)c2cc(N)ccc21 (stereo not drawn) [Compound 8, 2Me SiR600-TMR]	–	–	–	–	–	–	–	–	change in fluorescence intensity ratio in cells [3]: change in fluorescence intensity ratio observed
COC(=O)c1cc(C(=O)NC2CCC(NC(=O)c3ccc(C4=C5C=CC(=N)C=C5[Si](C)(C)c5cc(N)ccc54)c(C)c3)CC2)ccc1-c1c2ccc(=[N+](C)C)cc-2oc2cc(N(C)C)ccc12 (stereo not drawn) [Compound 9, 2Me SiR600-TMR(Me)]	–	–	–	–	–	–	–	–	change in fluorescence intensity ratio in cells [3]: change in fluorescence intensity ratio due to NEM addition was also observed
CCc1ccccc1C1=C2C=CC(=N)C=C2[Si](C)(C)c2cc(N)ccc21.O=C(O)C(F)(F)F [Compound 11]	–	–	–	–	2300	592	614	0.44	–
CN=C1C=CC2=C(c3ccccc3OC)c3ccc(NC)cc3[Si](C)(C)C2=C1.O=C(O)C(F)(F)F [Compound 16]	–	–	–	–	16000	620	643	0.34	–
CN=C1C=CC2=C(c3ccccc3O)c3ccc(NC)cc3[Si](C)(C)C2=C1.O=C(O)C(F)(F)F [Compound 17]	–	–	–	–	21000	620	643	0.22	–
CN(C)c1ccc2c(c1)[Si](C)(C)C1=CC(=[N+](C)C)C=CC1=C2c1ccccc1F [Compound 18]	–	–	–	–	1300	655	677	0.19	–
CN(C)c1ccc2c(c1)[Si](C)(C)C1=CC(=[N+](C)C)C=CC1=C2c1cccc(C(F)(F)F)c1 [Compound 21]	–	–	–	–	600	650	673	0.20	–
CN(C)c1ccc2c(c1)[Si](C)(C)C1=CC(=[N+](C)C)C=CC1=C2c1ccc(C(F)(F)F)cc1 [Compound 22]	–	–	–	–	500	650	673	0.16	–
CN(C)c1ccc2c(c1)[Si](C)(C)C1=CC(=[N+](C)C)C=CC1=C2c1ccccc1Cl [Compound 23]	–	–	–	–	27000	655	676	0.30	–
Cc1ccccc1C1=C2C=CC(=[N+](C)C)C=C2[Si](C)(C)c2cc(N)ccc21 [Compound 26]	–	–	–	–	15000	620	643	0.14	–
Cc1ccccc1C1=c2cc3c(cc2[Si](C)(C)c2cc4c(cc21)OCCN4C)=[N+](C)CCO3 [Compound 27]	–	–	–	–	2100	695	738	0.06	–
